“Also recorded” adds a separate entry of the source.
How the values were obtained:
NFKB [1] = assay: NFKB reporter activity in THP1-Dual monocytes co-cultured with treated Caki-1 cells; assay type: cell-based, human; settings: for NFKB signaling/activity in THP1 monocytes: Caki-1 cells treated 24 hours, then co-culture with THP1-Dual cells 24 hours, versus DMSO
Experimental: (§1) Caki-1 renal cell carcinoma cells were treated with either control (DMSO) or various doses of Erastin, for 24 hours prior to co-culture with THP1-Dual cells for an additional 24 hours. Erastin was purchased from Selleckchem (Houston, Tex.) and dissolved in DMSO. Subsequently, the THP1 supernatants were assessed for NFKB or IRF reporter activity.
(§2) Caki-1 cells were acquired from ATCC and THP1-Dual cells acquired from InvivoGen (San Diego, Calif.). Both cell types were cultured in 96-well plates for the duration of the assay. 7,500 Caki-1 cells were plated 24 hours prior to dosing with Erastin, with a final DMSO concentration of 0.5%. 24 hours post-treatment, THP1-Dual cells (25,000 cells/well) were added to the Caki-1 cells. 24 hours later, 30 μl of supernatant was mixed with either 200 μl QuantiBlue (InvivoGen) or 50 μl QuantiLuc and absorbance or luminescence was recorded on a Molecular Devices plate reader.
as §1, with “RSL3,” for “Erastin,”, “RSL3” for “Erastin”, “Selleckchem” for “Selleckchem (Houston, Tex.)”
as §2, with “RSL3,” for “Erastin,”, “(InvivoGen, San Diego, Calif.)” for “(InvivoGen)”
Caki-1 renal carcinoma cells were treated with either control (DMSO) or various doses (e.g. 0.002, 0.005, 0.014, 0.041, 0.123, 0.370, 1.111, 3.333 and 10 μM) of a GPX4 inhibitor (RSL3 or ML162) in the presence or absence of 1 μM Ferrostatin for 24 hours prior to co-culture with THP1-Dual cells for an additional 24 hours. Subsequently, the THP1 supernatant was assessed for NFKB reporter activity. Caki-1 cells were acquired from ATCC and THP1-Dual cells acquired from InvivoGen (San Diego, Calif.). Both cell types were cultured in 96-well plates for the duration of the assay.

[2] = tested on: HT1080 fibrosarcoma cells; assay: Viability of HT1080 fibrosarcoma cells after treatment; assay type: cell-based; settings: various doses, 24 hours treatment
[3] = tested on: PANC1 pancreatic cancer cells; assay: Viability of PANC1 pancreatic cancer cells after treatment; assay type: cell-based; settings: various doses, 24 hours treatment
[4] = tested on: cells overexpressing oncogenic HRAS; settings: engineered human fibroblast cell lines; Dolma et al., 2003; cited from earlier work
NFKB [5] = assay: NFKB reporter activity in THP1-Dual monocytes co-cultured with treated PANC1 cells; assay type: cell-based, human; settings: PANC1 cells treated 24 hours, then co-culture with THP1-Dual cells 24 hours; versus DMSO
Experimental: as §1, with “PANC1 pancreatic cancer” for “Caki-1 renal cell carcinoma”
as §2, with “PANC1 cells were” for “Caki-1 cells were”, “THP1-Dual cells were acquired from” for “THP1-Dual cells acquired from”, “assay. 7,500 PANC-1 cells were” for “assay. 7,500 Caki-1 cells were”, “to the PANC-1 cells. 24” for “to the Caki-1 cells. 24”, “μl QuantiBlue (InvivoGen, San Diego, Calif.) or 50” for “μl QuantiBlue (InvivoGen) or 50”

[6] = tested on: Caki-1 renal cell carcinoma cells; assay: Viability of Caki-1 renal cell carcinoma cells after treatment; assay type: cell-based; settings: for viability of Caki-1 cells: various doses, 24 hours treatment
Experimental: Caki-1 renal carcinoma cells were treated with either control (DMSO) or various doses (e.g. 0.002, 0.005, 0.014, 0.041, 0.123, 0.370, 1.111, 3.333 and 10 μM) of a GPX4 inhibitor (RSL3 or ML162) in the presence or absence of 1 μM Ferrostatin for 24 hours prior to co-culture with THP1-Dual cells for an additional 24 hours. […] Caki-1 cells were acquired from ATCC and THP1-Dual cells acquired from InvivoGen (San Diego, Calif.). Both cell types were cultured in 96-well plates for the duration of the assay.

NFKB [7] = assay: NFKB reporter activity in THP1-Dual monocytes co-cultured with treated HT1080 cells; assay type: cell-based, human; settings: HT1080 cells treated 24 hours, then co-culture with THP1-Dual cells 24 hours; versus DMSO
Experimental: as §1, with “HT1080 fibrosarcoma” for “Caki-1 renal cell carcinoma”, “Erastin, piperazine erastin (PE), or imidazole ketoerastin (IKE)” for “Erastin,”, “nuclear factor kappa-light-chain-enhancer of activated B cells (NFKB)” for “NFKB”, “interferon regulatory factor (IRF)” for “IRF”
HT1080 cells were acquired from ATCC and THP1-Dual cells were acquired from InvivoGen (San Diego, Calif.). THP1-Dual cells are human monocyte cells that induce reporter proteins upon activation of either NFKB or IRF pathways. Both cell types were cultured in 96-well plates for the duration of the assay. HT1080 cells were cultured in DMEM with 10% FBS, and THP1-Dual cells were cultured in RPMI with 10% FBS. 7,500 HT1080 cells were plated 24 hours prior to dosing with Erastin, PE, or IKE, with a final DMSO concentration of 0.5%. 24 hours post-treatment, THP1-Dual cells (25,000 cells/well) were added to the HT1080 cells. 24 hours later, 30 μl of supernatant was mixed with either 200 μl QuantiBlue (InvivoGen, San Diego, Calif.) (for NFKB reporter activity) or 50 μl QuantiLuc (for IRF reporter activity) and absorbance or luminescence was recorded on a Molecular Devices plate reader.
HT1080 fibrosarcoma cells were treated with various doses of Erastin (e.g. […], 0.16, 0.31, 0.63, 1.25, 2.5, 5, 10 or 20 μM) alone or in combination with a ferroptosis inhibitor (1 μM Ferrostatin-1, 1 μM Liproxstatin-1, 100 μM Trolox, 25 μM β-Mercaptoethanol or 100 μM Deferoxamine) for 24 hours prior to co-culture with THP1-Dual cells for an additional 24 hours. Ferrostatin-1 and Liproxstatin-1 were purchased from Selleckchem (Houston, Tex.) and dissolved in DMSO. Trolox was purchased from Cayman Chemical Company Inc and resuspended in DMSO. […] Subsequently, the THP1 supernatant was assessed for NFKB activity. […]

A20 lymphoma cells = assay: Viability of A20 B-cell leukemia / lymphoma cells after treatment; assay type: cell-based; settings: for viability of A20 cells: various doses, 24 hours treatment
NFKB [8] = assay: NFKB reporter activity in THP1-Dual monocytes co-cultured with treated A20 cells; assay type: cell-based, human; settings: for NFKB signaling/activity in THP1 monocytes: A20 cells treated 24 hours, then co-culture with THP1-Dual cells 24 hours, versus DMSO
Experimental: as §1, with “A20 B-cell leukemia” for “Caki-1 renal cell carcinoma”, “RSL3,” for “Erastin,”, “RSL3” for “Erastin”
as §2, with “A20” for “Caki-1”, “50,000 A20” for “7,500 Caki-1”, “RSL3,” for “Erastin,”, “(InvivoGen, San Diego, Calif.)” for “(InvivoGen)”
A20 lymphoma cells were treated with various doses (e.g. 0.002, 0.005, 0.014, 0.041, 0.123, 0.370, 1.111, 3.333 and 10 μM) of a GPX4 inhibitor (RSL3, ML162 or ML210) in the presence or absence of 1 μM Ferrostatin-1 for 24 hours. ML162 was purchased from Cayman Chemical Company Inc and resuspended in DMSO. ML210 was purchased from Sigma-Aldrich and resuspended in DMSO. A20 lymphoma cells were also treated with DMSO as a negative control. After treatment with DMSO or a GPX4 inhibitor for 24 hours, the A20 lymphoma cells were co-cultured with THP1-Dual cells for an additional 24 hours. Subsequently, the THP1 supernatant was assessed for NFKB reporter activity. A20 cells were acquired from ATCC and THP1-Dual cells were acquired from InvivoGen (San Diego, Calif.). Both cell types were cultured in 96-well plates for the duration of the assay.

| SMILES | NFKB signaling/activity in THP1 monocytes (NFKB [1]) | viability of HT1080 cells [2] | viability of Caki-1 cells [6] | NFKB signaling/activity in THP1 monocytes (NFKB [7]) | viability of A20 cells (A20 lymphoma cells) | NFKB signaling/activity in THP1 monocytes (NFKB [8]) | further results |
| --- | --- | --- | --- | --- | --- | --- | --- |
| CCOc1ccccc1-n1c(C(C)N2CCN(C(=O)COc3ccc(Cl)cc3)CC2)nc2ccccc2c1=O (stereo not drawn) [Erastin, erastin] | elicited NFKB signaling | negatively affected the viability; also recorded: decreased viability of the cells in a dose dependent manner | negatively affected the viability | elicited NFKB signaling; also recorded: increased NFKB activity in THP1 cells in a dose dependent manner | – | – | viability of PANC1 cells [3]: negatively affected the viability; lethality in cells overexpressing oncogenic HRAS [4]: induce preferential lethality; NFKB signaling in THP1 monocytes (NFKB [5]): elicited NFKB signaling |
| CCOC(=O)c1ccc(NC2CCCCC2)c(N)c1 [Ferrostatin-1] | – | – | – | – | – | – | effect on GPX4 inhibitor-increased NFKB activity in THP1 cells (NFKB [1]; Caki-1 cells, 1 μM Ferrostatin-1 together with RSL3 or ML162, then THP1-Dual co-culture 24 hours): attenuated; effect on GPX4 inhibitor-decreased viability of A20 lymphoma cells (A20 lymphoma cells; 1 μM Ferrostatin-1 together with RSL3, ML162 or ML210, 24 hours): attenuated; effect on GPX4 inhibitor-decreased viability of Caki-1 renal carcinoma cells ([6]; 1 μM Ferrostatin-1 together with RSL3 or ML162, 24 hours): attenuated; effect on GPX4 inhibitor-increased NFKB activity in THP1 cells (NFKB [8]; A20 cells, 1 μM Ferrostatin-1 together with RSL3, ML162 or ML210, then THP1-Dual co-culture 24 hours): attenuated |
| CC(C)Oc1ccc(C(=O)Cn2ccnc2)cc1-n1c(CN2CCN(C(=O)COc3ccc(Cl)cc3)CC2)nc2ccccc2c1=O [IKE, imidazole ketoerastin] | – | negatively affected the viability | – | elicited NFKB signaling | – | – | – |
| COc1ccc(N(C(=O)CCl)C(C(=O)NCCc2ccccc2)c2cccs2)cc1Cl (stereo not drawn) [ML162] | increased NFKB activity in THP1 cells in a dose dependent manner | – | decreased viability of the cells in a dose dependent manner | – | decreased viability of the cells in a dose dependent manner | increased NFKB activity in THP1 cells in a dose dependent manner | – |
| Cc1onc(C(=O)N2CCN(C(c3ccc(Cl)cc3)c3ccc(Cl)cc3)CC2)c1[N+](=O)[O-] [ML210] | – | – | – | – | decreased viability of the cells in a dose dependent manner | increased NFKB activity in THP1 cells in a dose dependent manner | – |
| CC(C)Oc1ccc(CN2CCNCC2)cc1-n1c(CN2CCN(C(=O)COc3ccc(Cl)cc3)CC2)nc2ccccc2c1=O [PE, piperazine erastin] | – | negatively affected the viability | – | elicited NFKB signaling | – | – | – |

Source: patent publication US20210251994A1, “INCREASING IMMUNE ACTIVITY THROUGH MODULATION OF POSTCELLULAR SIGNALING FACTORS” (FLAGSHIP PIONEERING INNOVATIONS V, INC., priority 2018, published 2021)
